Source: ChEMBL document CHEMBL5329177, “De novo design of a stapled peptide targeting SARS-CoV-2 spike protein receptor-binding domain” (RSC Med Chem, 2023)
Starred links: 1 amine or outer side, 2 acyl side, 3 side chain; linkers in the order of their positions; H or OH if unused. Positions of bridges follow the written chain, without caps; N, C: chain ends. Non-standard residues stand in square brackets, D forms with d. Residues, ends and D or L forms follow the SMILES beside them. X1 = C[C@@](CC=[*:3])(N[*:1])C(=O)[*:2]

Tested on: Vero C1008
Assay: Cytotoxicity against African green monkey Vero E6 cells assessed as inhibition of cell growth measured after 48 hrs by MTT assay
Format: toxicity, cell-based
Conditions: chlorocebus sabaeus, vero c1008, 48 h, dose 0.05-50 µM

SMILES: CSCC[C@@H]1NC(=O)[C@H](CC(N)=O)NC(=O)[C@@H]2CC(=O)NCCCC[C@H](NC(=O)[C@H](Cc3c[nH]c4ccccc34)NC(=O)[C@@H](NC(=O)[C@H](CCCCN)NC(=O)[C@H](Cc3ccc(O)cc3)NC(=O)[C@H](CC(C)C)NC(=O)[C@H](Cc3c[nH]c4ccccc34)NC(=O)[C@H](CCC(=O)O)NC(=O)[C@@H](NC(=O)CNC(C)=O)[C@@H](C)O)C(C)C)C(=O)N[C@@H](C)C(=O)N[C@@H](Cc3ccccc3)C(=O)N[C@@](C)(C/C=C/C[C@@](C)(C(=O)O)NC1=O)C(=O)N2 (Ac-GTEWLYKVWKAF[X1]DNM[X1]-OH; lactam 10-14; staple (E) 13-17)
- Activity: Dose-Dependent Effect
